These results are taken from patent publication US11912693B2, “Compounds for modulating S1P1 activity and methods of using the same” (TREVENA, INC., priority 2017, dated 2024).

For assay [1], the target named is T1, human sphingosine-1-phosphate receptor 1 (S1P1) (Homo sapiens (Human), UniProt P21453). Kind of assay: β-Arrestin2 recruitment assay (PathHunter), S1P1 CHO-K1 cells. The following applies: for Emax: CHO-K1, efficacy (SPAN) normalized to fingolimod, read-out: hS1P1 B-arrestin2 SPAN. It is filed as cell-based. The essentials:
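Enzyme-fragment complementation read-out: agonist-driven β-arrestin2 binding to ProLink-tagged human S1P1 in stable CHO-K1 cells restores β-galactosidase, measured 1 h at room temperature after a 60 min 37° C. compound incubation. Potency as pEC50, efficacy relative to fingolimod (SPAN).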
For orientation: Activated receptors often draw arrestin, which recruitment assays turn into a signal.
Target sequence in this assay (P21453 whole entry, looked up, the tested form may be a part): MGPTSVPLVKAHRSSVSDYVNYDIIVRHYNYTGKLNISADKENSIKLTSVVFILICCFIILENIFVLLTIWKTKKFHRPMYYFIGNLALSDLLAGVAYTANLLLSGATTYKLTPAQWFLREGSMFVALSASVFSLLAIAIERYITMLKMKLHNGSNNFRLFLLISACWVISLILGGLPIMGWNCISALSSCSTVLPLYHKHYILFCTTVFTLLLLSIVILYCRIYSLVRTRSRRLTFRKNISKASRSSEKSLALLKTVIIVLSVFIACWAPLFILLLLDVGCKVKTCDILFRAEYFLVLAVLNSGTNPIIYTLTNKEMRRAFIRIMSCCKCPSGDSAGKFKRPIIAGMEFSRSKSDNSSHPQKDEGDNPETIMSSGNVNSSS
Target sequence in this assay (P32121 whole entry partner, looked up, the tested form may be a part): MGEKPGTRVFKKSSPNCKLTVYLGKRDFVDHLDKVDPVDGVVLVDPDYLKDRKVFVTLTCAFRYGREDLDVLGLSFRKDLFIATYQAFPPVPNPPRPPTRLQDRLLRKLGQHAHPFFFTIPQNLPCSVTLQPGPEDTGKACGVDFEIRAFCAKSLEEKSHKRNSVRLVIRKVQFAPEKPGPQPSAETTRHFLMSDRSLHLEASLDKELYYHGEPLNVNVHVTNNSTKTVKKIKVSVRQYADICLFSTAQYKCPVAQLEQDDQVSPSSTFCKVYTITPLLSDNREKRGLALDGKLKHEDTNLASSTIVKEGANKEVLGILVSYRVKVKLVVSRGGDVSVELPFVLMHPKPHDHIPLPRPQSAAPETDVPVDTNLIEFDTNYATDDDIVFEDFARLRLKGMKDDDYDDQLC

Assay [2] relates to paclitaxel induced peripheral neuropathy. Description: Reversal of allodynia induced by paclitaxel in mice (s.c. or p.o., von Frey frequency method). The settings on record: Mus musculus; for inhibition in vivo at 1 mg/kg: sc, 0.5 h, 1 mg/kg s.c., tested 30 min after dosing, read-out: Screen @ 1 mg/kg sc (% MPE); for inhibition in vivo at 3 mg/kg: po, 1 h, 3 mg/kg p.o., tested 60 min after dosing, read-out: Screen @ 3 mg/kg po (% MPE). Type of assay: in vivo, c57bl/6 mice. How it is done: Compounds were tested for efficacy in mouse models of chemotherapy induced peripheral neuropathy. […] For these studies […]/6 mice are habituated to the test environment and baseline measurements of pain sensitivity are assessed. To determine mechanical responses, the threshold for responses to punctate mechanical stimuli (mechanical hyperalgesia) was tested according to the frequency method. In brief, the plantar surface of the animal hindpaw was stimulated with a single von Frey monofilament (0.4 g) for approximately 1-2 seconds. If there was a withdrawal response, it was recorded as a positive response. A response was defined as a lifting or shaking of the paw upon stimulation. This was repeated ten times for each mouse. The final measurement for each mouse is the % non-response to stimulation for the ten trials. The % non-response to stimulation is converted to a % MPE. For paclitaxel induced peripheral neuropathy, a series of injections of PAC (6 mg/kg, i.p.) on days 1, 3, 5 and 7 is used to induce peripheral neuropathy. After approximately 14 days from the initiation of PAC injections, animals are re-assessed for mechanical sensitivity. […] On test day animals are dosed with compounds either subcutaneously or orally and tested for mechanical response by the frequency method either 30 min (s.c.) or 60 min (p.o.) after drug administration. Data is presented as a % MPE. For oxaliplatin induced peripheral neuropathy, a series of injections of OXA (4 mg/kg, i.p.) on days 1-5 is used to induce peripheral neuropathy. After approximately 14 days from the initiation of PAC injections, animals are re-assessed for mechanical sensitivity. […] On test day animals are dosed with compounds subcutaneously and tested for mechanical response by the frequency method 30 min after drug administration. Data is presented as a % MPE. One or more of the compounds show reversal of chemotherapeutic induced peripheral neuropathy.

Assay [3] addresses T1, human sphingosine-1-phosphate receptor 1 (S1P1). Description: Inhibition of cAMP production (HTRF cAMP HiRange), S1P1 CHO-K1 cells. It is filed as cell-based. The settings on record: for Emax: CHO-K1, efficacy (SPAN) normalized to fingolimod, read-out: hS1P1 cAMP SPAN. The method, boiled down: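 CHO-K1 cells stably co-expressing human S1P1 (C-terminal Prolink tag) and EA-β-arrestin2 were grown in AssayComplete Media 6 at 37° C. and 5% CO2, plated, and incubated overnight. Agonist-driven inhibition of intracellular cAMP was read by TR-FRET with the HTRF cAMP HiRange kit on a PheraStar reader. Potency is pEC50, and efficacy (SPAN) is normalized to fingolimod.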
Target sequence in this assay (P21453 whole entry, looked up, the tested form may be a part): as the sequence (P21453 whole entry, looked up, the tested form may be a part) above
For orientation: Cyclic AMP is a second messenger, typically raised through Gs and lowered through Gi signalling.

Where [4] appears, read: β-arrestin2 recruitment, S1P1 CHO-K1 cells.
[5] abbreviates: inhibition of cAMP production, S1P1 CHO-K1 cells.

Take `CC(C)n1nnc2cc(-c3noc(-c4ccccc4C(F)(F)F)n3)ccc21` [Compound 33, 3-(1-isopropylbenzotriazol-5-yl)-5-[2-(trifluoromethyl)phenyl]-1,2,4-oxadiazole]: the “hS1P1 B-arrestin2 pEC50” value in assay [1] (setting [4]) is recorded as above 5. Moreover, the inhibition in vivo at 1 mg/kg in assay [2] was below 50%. In addition, the “hS1P1 cAMP pEC50” value in assay [3] (setting [5]) is above 6.5.
For the compound `CCC1(CC)CC(=O)c2cc(-c3nc(-c4ccc(S(N)(=O)=O)cc4)no3)ccc2O1` [Compound 106, 4-(5-(2,2-diethyl-4-oxochroman-6-yl)-1,2,4-oxadiazol-3-yl)benzenesulfonamide], the Emax in assay [1] and in assay [3] was above 75% each time. The “hS1P1 B-arrestin2 pEC50” value in assay [1] (setting [4]) was above 5. In assay [2], the inhibition in vivo at 1 mg/kg is below 50%. In assay [3] (setting [5]), the “hS1P1 cAMP pEC50” value is reported as above 6.5.
With `CC(C)Nc1ccc(-c2nc(-c3ccc4c(c3)CC(=O)N4)no2)cc1C#N` [Compound 107, 2-(isopropylamino)-5-(3-(2-oxoindolin-5-yl)-1,2,4-oxadiazol-5-yl)benzonitrile], the Emax in assay [1] and in assay [3] was above 75% in each case. The “hS1P1 B-arrestin2 pEC50” value in assay [1] (setting [4]) was above 5. For the same compound, in assay [2], the inhibition in vivo at 1 mg/kg was below 50%. For the same compound, the “hS1P1 cAMP pEC50” value in assay [3] (setting [5]) is above 6.5.
As to `CCC1(CC)CC(=O)c2cc(-c3nc(-c4ccc(C(N)=O)cc4)no3)ccc2O1` [Compound 179, 4-(5-(2,2-diethyl-4-oxochroman-6-yl)-1,2,4-oxadiazol-3-yl)benzamide], the Emax in assay [1] was above 75%. In addition, the “hS1P1 B-arrestin2 pEC50” value in assay [1] (setting [4]) is above 5. In assay [2], the inhibition in vivo at 3 mg/kg is above 50% and the inhibition in vivo at 1 mg/kg was above 50%. Moreover, the Emax in assay [3] is above 75%. In assay [3] (setting [5]), the “hS1P1 cAMP pEC50” value was above 6.5.
Consider `N#Cc1cc(-c2nc(-c3ccc4c(c3)CC(=O)N4)no2)ccc1NCC1CC1` [Compound 210, 2-((cyclopropylmethyl)amino)-5-(3-(2-oxoindolin-5-yl)-1,2,4-oxadiazol-5-yl)benzonitrile], for which the Emax in assay [1] and in assay [3] was above 75% in each case. For the same compound, in assay [1] (setting [4]), the “hS1P1 B-arrestin2 pEC50” value was above 5. Also, the inhibition in vivo at 1 mg/kg in assay [2] was below 50%. For the same compound, the “hS1P1 cAMP pEC50” value in assay [3] (setting [5]) is above 6.5.
In the case of `C=CCNc1ccc(-c2nc(-c3ccc4c(c3)CC(=O)N4)no2)cc1C#N` [Compound 224, 2-(allylamino)-5-(3-(2-oxoindolin-5-yl)-1,2,4-oxadiazol-5-yl)benzonitrile], the Emax in assay [1] and in assay [3] was above 75% each time. Further, the “hS1P1 B-arrestin2 pEC50” value in assay [1] (setting [4]) is above 5. In assay [2], the inhibition in vivo at 1 mg/kg is above 50%. Besides, in assay [3] (setting [5]), the “hS1P1 cAMP pEC50” value was above 6.5.
Regarding `CCC1(CC)CC(=O)c2cc(-c3nc(-c4ccc5c(c4)nnn5C(C)C)no3)ccc2O1` [Compound 305, 2,2-diethyl-6-(3-(1-isopropyl-1H-benzo[d][1,2,3]triazol-5-yl)-1,2,4-oxadiazol-5-yl)chroman-4-one], the “hS1P1 B-arrestin2 pEC50” value in assay [1] (setting [4]) is listed as below 5. Besides, the inhibition in vivo at 1 mg/kg in assay [2] was above 50%. Further, the “hS1P1 cAMP pEC50” value in assay [3] (setting [5]) is below 6.5.
In the same order, the values of `Cc1ccccc1-c1noc(-c2ccc3c(c2)nnn3C2CCC2)n1` [Compound 306, 1-cyclobutyl-5-[3-(2-methylphenyl)-1,2,4-oxadiazol-5-yl]-1H-1,2,3-benzotriazole] are above 5, below 50% and above 6.5.
As for `CC(F)CNc1ccc(-c2nc(-c3ccc4c(c3)CCC(=O)N4)no2)cc1C#N` (stereo not shown) [Compound 348, 2-[(2-fluoropropyl)amino]-5-[3-(2-oxo-1,2,3,4-tetrahydroquinolin-6-yl)-1,2,4-oxadiazol-5-yl]benzonitrile], the Emax in assay [1] and in assay [3] was above 75% in each case. Besides, the “hS1P1 B-arrestin2 pEC50” value in assay [1] (setting [4]) is given as above 5. Also, the inhibition in vivo at 3 mg/kg in assay [2] is above 50%. Also, in assay [3] (setting [5]), the “hS1P1 cAMP pEC50” value is given as above 6.5.
With `N#Cc1cc(-c2nnc(-c3ccc4[nH]ncc4c3)o2)ccc1NCC(F)F` [Compound 354, 2-[(2,2-difluoroethyl)amino]-5-[5-(1H-indazol-5-yl)-1,3,4-oxadiazol-2-yl]benzonitrile], the Emax in assay [1] and in assay [3] was above 75% each time. The “hS1P1 B-arrestin2 pEC50” value in assay [1] (setting [4]) is recorded as above 5. In assay [2], the inhibition in vivo at 3 mg/kg is above 50%. In assay [3] (setting [5]), the “hS1P1 cAMP pEC50” value is given as above 6.5.
Turning to `N#Cc1cc(-c2nnc(-c3ccc4[nH]cnc4c3)o2)ccc1NCCF` [Compound 358, 5-[5-(1H-1,3-benzodiazol-5-yl)-1,3,4-oxadiazol-2-yl]-2-[(2-fluoroethyl)amino]benzonitrile], the Emax in assay [1] and in assay [3] was above 75% in each case. Besides, in assay [1] (setting [4]), the “hS1P1 B-arrestin2 pEC50” value is listed as above 5. Besides, the inhibition in vivo at 3 mg/kg in assay [2] was above 50%. In addition, the “hS1P1 cAMP pEC50” value in assay [3] (setting [5]) is above 6.5.
On to `O=C1CNc2ccc(-c3nc(-c4cn[nH]c4)no3)cc2N1` [Compound 645, 7-[3-(1H-pyrazol-4-yl)-1,2,4-oxadiazol-5-yl]-1,2,3,4-tetrahydroquinoxalin-2-one], for which, in assay [1] (setting [4]), the “hS1P1 B-arrestin2 pEC50” value is given as below 5. Further, the “hS1P1 cAMP pEC50” value in assay [3] (setting [5]) is given as below 6.5.
For the compound `CC(C)n1nnc2cc(-c3nc(-c4cn[nH]c4)no3)ccc21` [Compound 646, 1-(propan-2-yl)-5-[3-(1H-pyrazol-4-yl)-1,2,4-oxadiazol-5-yl]-1H-1,2,3-benzotriazole], the Emax in assay [1] was above 75%; in assay [3] it was below 75%. Further, the EC50 was above 10 µM in assay [1] (β-arrestin2 recruitment, S1P1 CHO-K1 cells, read-out: hS1P1 B-arrestin2 pEC50 (converted)) and above 0.316 µM in assay [3] (inhibition of cAMP production, S1P1 CHO-K1 cells, read-out: hS1P1 cAMP pEC50 (converted)).
Consider `COc1ccc(-c2noc(-c3ccc4c(c3)nnn4CC(C)(C)O)n2)c(C)c1` [Compound 647, 1-{5-[3-(4-methoxy-2-methylphenyl)-1,2,4-oxadiazol-5-yl]-1H-1,2,3-benzotriazol-1-yl}-2-methylpropan-2-ol], for which the Emax in assay [1] and in assay [3] was above 75% each time. Also, the “hS1P1 B-arrestin2 pEC50” value in assay [1] (setting [4]) is reported as above 5. The “hS1P1 cAMP pEC50” value in assay [3] (setting [5]) is listed as above 6.5.
Take `N#Cc1cc(-c2nc(-c3ccc4[nH]c(=O)oc4c3)no2)ccc1NCC1CC1` [Compound 726, 2-(cyclopropylmethylamino)-5-[3-(2-oxo-3H-1,3-benzoxazol-6-yl)-1,2,4-oxadiazol-5-yl]benzonitrile]: the inhibition in vivo at 3 mg/kg in assay [2] was above 50%.
In the case of `N#Cc1cc(-c2nc(-c3ccc4c(c3)CNC4=O)no2)ccc1NCC1CC1` [Compound 727, 2-((cyclopropylmethyl)amino)-5-(3-(1-oxoisoindolin-5-yl)-1,2,4-oxadiazol-5-yl)benzonitrile], in assay [2], the inhibition in vivo at 3 mg/kg is above 50%.
The same measure, in the same setting: to `CC(C)Nc1ccc(-c2nc(-c3ccc4[nH]c(=O)[nH]c4c3)no2)cc1C#N` [Compound 728, 2-(isopropylamino)-5-(3-(2-oxo-2,3-dihydro-1H-benzo[d]imidazol-5-yl)-1,2,4-oxadiazol-5-yl)benzonitrile] belongs above 50%; to `N#Cc1cc(-c2nc(-c3ccc4[nH]c(=O)[nH]c4c3)no2)ccc1NCC1CC1` [Compound 729, 2-((cyclopropylmethyl)amino)-5-(3-(2-oxo-2,3-dihydro-1H-benzo[d]imidazol-5-yl)-1,2,4-oxadiazol-5-yl)benzonitrile], above 50%; to `N#Cc1cc(-c2nnc(-c3ccc4cnccc4c3)o2)ccc1NCC(F)F` [Compound 733, 2-[(2,2-difluoroethyl)amino]-5-[5-(isoquinolin-6-yl)-1,3,4-oxadiazol-2-yl]benzonitrile], above 50%.
On the same count and under the same terms, then `CC(C)Nc1ccc(-c2nnc(-c3ccc4cnccc4c3)o2)cc1C#N` [Compound 735, 5-[5-(isoquinolin-6-yl)-1,3,4-oxadiazol-2-yl]-2-[(propan-2-yl)amino]benzonitrile], with below 50%; and `CC(C)Nc1ccc(-c2nnc(-c3ccc4ncccc4c3)o2)cc1C#N` [Compound 736, 2-[(propan-2-yl)amino]-5-[5-(quinolin-6-yl)-1,3,4-oxadiazol-2-yl]benzonitrile], with above 50%.
